From BindingDB's records for doi:10.7270/Q2TX3CTT (Broad Institute, 2010) come the findings set out here.

A word on the EC50: it is the concentration at which the effect is half-maximal.

A value given as a limit tells only on which side of the number the result lay.

Glycogen synthase kinase-3 beta, sequence (P49841 whole entry): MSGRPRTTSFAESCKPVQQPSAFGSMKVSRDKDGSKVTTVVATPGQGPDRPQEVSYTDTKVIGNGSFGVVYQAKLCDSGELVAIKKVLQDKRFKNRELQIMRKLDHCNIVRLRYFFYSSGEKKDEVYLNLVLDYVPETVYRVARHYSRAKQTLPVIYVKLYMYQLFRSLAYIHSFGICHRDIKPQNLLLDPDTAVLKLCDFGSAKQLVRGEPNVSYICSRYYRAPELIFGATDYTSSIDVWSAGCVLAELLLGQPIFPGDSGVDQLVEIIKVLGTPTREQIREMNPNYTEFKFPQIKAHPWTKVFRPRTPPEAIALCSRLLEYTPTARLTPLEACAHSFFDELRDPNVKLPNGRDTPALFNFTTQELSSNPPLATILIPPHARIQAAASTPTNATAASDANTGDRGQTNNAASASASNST

This assay has as its target Glycogen synthase kinase-3 beta (Homo sapiens, UniProt P49841). As to the kind of experiment: GSK3beta kinase inhibitor potency, dose response, biochemical, luminescence, cell-free homogeneous, retest (AID 434954).
`Cc1ccc2nc3c(cc2c1)c(NC(=O)c1ccco1)nn3CC(C)C` [Furan-2-carboxylic acid (1-isobutyl-6-methyl-1H-pyrazolo[3,4-b]quinolin-3-yl)-amide] had an EC50 above 300 µM. In turn, `CCCC1=Nc2ncnn2C(c2ccco2)C1C(=O)OCC` (stereo not drawn) [ethyl 7-(furan-2-yl)-5-propyl-1,7-dihydro-[1,2,4]triazolo[1,5-a]pyrimidine-6-carboxylate] showed a concentration for a half-maximal effect (EC50) of 17.4 µM. The figure for `COc1cccc2cc(C(C)=O)c(=O)oc12` [3-acetyl-8-methoxy-2H-chromen-2-one] is above 300 µM; for `Oc1ccccc1CN=Nc1nnn[nH]1` [(6E)-6-[(2H-tetrazol-5-ylhydrazo)methylidene]-1-cyclohexa-2,4-dienone] it is above 300 µM. Consider `COc1ccc(-c2nn(-c3ccccc3)cc2/C=C/C(=O)N2CCOCC2)cc1OC` [MLS001017845], for which the 50% effective concentration (EC50) was above 300 µM. The figure for `CCN1CCCC1CNC(=O)c1ccc2c(c1)NC(=O)/C(=C\c1ccc(OC)c(OC)c1)S2` (stereo not drawn) [MLS001030689] is 6.6 µM; for `CC(C)Cn1nc(NC(=O)C(C)(C)C)c2cc3ccccc3nc21` [MLS000081069] it is 71.4 µM. `c1ccc(-n2cnnc2SCc2cn3cccnc3n2)cc1` [2-(4-Phenyl-4H-[1,2,4]triazol-3-ylsulfanylmethyl)-imidazo[1,2-a]pyrimidine] registered a concentration for a half-maximal effect (EC50) above 300 µM. `O=C(CN(Cc1cccs1)C(=O)CCC(=O)Nc1nccs1)NCc1ccccc1` [MLS000551058] showed an EC50 above 300 µM. The figure for `COc1cccc(C(=O)Nc2nc3ccc(S(C)(=O)=O)cc3s2)c1` [SMR000280607] is above 300 µM; for `Clc1nccc(NCc2ccccc2)n1` [N-benzyl-N-(2-chloropyrimidin-4-yl)amine] it is above 300 µM; for `CC1=C(C#N)C(=O)NC(=O)C1=NNc1ccc(Cl)c(C(=O)O)c1` [MLS001213189] it is 39.8 µM.

The compound `O=NCc1ccc(OCc2ccccc2)c(Cl)c1` [3-chloro-4-phenylmethoxybenzaldehyde oxime] registered a 50% effective concentration (EC50) above 300 µM. `CCCc1cc(=O)oc2cc(C)cc(O)c12` [5-hydroxy-7-methyl-4-propyl-1-benzopyran-2-one] gave an EC50 above 300 µM. For `COc1ccc(C(=O)N/C(=C\c2ccco2)C(=O)NCCN2CCOCC2)cc1` [MLS000923740], the EC50 is above 300 µM. In the case of `c1ccc(Nc2nc(NCCN3CCOCC3)nc(Nc3ccccc3)n2)cc1`, the concentration for a half-maximal effect (EC50) is above 300 µM.

`COc1cc(C=C2SC(Nc3ccc(O)cc3)=NC2=O)ccc1O` [MLS000778276]: the midpoint of the response, the EC50, lay at 23.3 µM.

`Nc1ncnc2c1ncn2[C@@H]1O[C@H](CO)[C@@H](O)[C@H]1N` showed an EC50 above 300 µM. `c1cc(CSc2nnc(-c3ccc4c(c3)OCO4)o2)ccn1` [SMR000006350] returned an EC50 of 1.71 µM. With `CCCn1c(SCC(=O)Nc2ccc(Cl)cn2)nnc1C1CC1`, the EC50 is 24 µM.

As to `COc1ccc(C(=O)OCCc2ccc(O)cc2)cc1`, the concentration giving a half-maximal response (EC50) was above 300 µM. Take `CCOc1cc(C(=O)OCC(=O)Nc2ccc(Cl)cn2)ccc1OCC(=O)N1CCOCC1` [MLS000334350]: the concentration giving a half-maximal response (EC50) came out at 61.8 µM.

The compound `COc1ccc2nc3c(cc2c1)c(NC(=O)C1CCCO1)nn3CC(C)C` (stereo not drawn) [N-[6-methoxy-1-(2-methylpropyl)-3-pyrazolo[3,4-b]quinolinyl]-2-oxolanecarboxamide] gave an EC50 of 0.946 µM. Take `CNc1nc(N)nc(-c2cc(Cl)ccc2OC)n1` [6-(5-chloranyl-2-methoxy-phenyl)-N2-methyl-1,3,5-triazine-2,4-diamine]: the EC50 was above 300 µM. The figure for `CCC(NC(=O)Cc1c(C)c2cc3c(cc2oc1=O)OC(C)(C)CC3)C(=O)O` (stereo not drawn) [MLS001215946] is above 300 µM; for `CC1=C(C#N)C(=O)NC(=O)C1=CNc1ccc(S(=O)(=O)N(C)C)cc1` it is above 300 µM. The figure for `Cc1cccc(COc2ccc(C=NNC(=O)c3nnn(-c4nonc4N)c3CN3CCCCC3)cc2)c1` [SMR000646486] is above 300 µM; for `COc1cc(CN=O)ccc1OCc1ccccc1Cl` [4-(2-chlorobenzyl)oxy-3-methoxy-benzaldoxime] it is above 300 µM.
